From US20260242391A1 (priority 2023, published 2026)

Columns and labels:
[1] = in vitro; conditions: human
[2] = system: HL-60; experiment: HL-60 differentiation potency; assay type: cell-based; conditions: Homo sapiens

IC50 [1] [nM]	EC50 [2] [nM]	Compound
> 20000	2820	COc1cc(CO[C@@H]2O[C@@H]3O[C@@]4(C)CC[C@H]5[C@H](C)CC[C@@H]([C@H]2C)[C@@]35OO4)ccc1C(=O)O [Compound 54, 2-methoxy-4-((((3R,5aS,6R,8aS, 9R,10R,12R, 12aR)-3,6,9-trimethyldeca-hydro-12H-3,12-epoxy[1,2]dioxepino[4,3-i]isochromen-10-yl)oxy)methyl) benzoic acid]
> 20000	> 20000	C[C@H]1[C@@H](OCC(=O)N2C[C@H](F)C[C@H]2C(=O)O)O[C@@H]2O[C@@]3(C)CC[C@H]4[C@H](C)CC[C@@H]1[C@@]24OO3 [Compound 150, (2S,4R)-4-fluoro-1-(2-(((3R,5aS,6R,8aS, 9R,10S,12R, 12aR)-3,6,9-trimethyldeca-hydro-12H-3,12-epoxy[1,2]dioxepino[4,3-i]isochromen-10-yl)oxy)acetyl) pyrrolidine-2-carboxylic acid]
10	12.4	C[C@H]1[C@@H](Oc2ccc(CC(=O)OC(C)(C)C)cc2)O[C@@H]2O[C@@]3(C)CC[C@H]4[C@H](C)CC[C@@H]1[C@@]24OO3 [Compound 132, tert-butyl 2-(4-(((3R,5aS,6R,8aS, 9R,10S,12R, 12aR)-3,6,9-trimethyldeca-hydro-12H-3,12-epoxy[1,2]dioxepino[4,3-i]isochromen-10-yl)oxy)phenyl) acetate]
> 20000	120	C[C@H]1[C@@H](OC[C@@H]2CCC[C@H](C(=O)O)C2)O[C@@H]2O[C@@]3(C)CC[C@H]4[C@H](C)CC[C@@H]1[C@@]24OO3 [Compound 138, (1S,3R)-3-((((3R,5aS,6R, 8aS,9R,10S,12R, 12aR)-3,6,9-trimethyldeca-hydro-12H-3,12-epoxy[1,2]dioxepino[4,3-i]isochromen-10-yl)oxy)methyl) cyclohexane-1-carboxylic acid]
3000	30.9	C[C@H]1[C@H](Oc2ccc(C#CC(=O)O)cc2)O[C@@H]2O[C@@]3(C)CC[C@H]4[C@H](C)CC[C@@H]1[C@@]24OO3 [Compound 139, 3-(4-(((3R,5aS,6R,8aS, 9R,10R,12R, 12aR)-3,6,9-trimethyldeca-hydro-12H-3,12-epoxy[1,2]dioxepino[4,3-i]isochromen-10-yl)oxy)phenyl) propiolic acid]
13100	616	C[C@H]1[C@@H](OCc2ccc(-c3nn[nH]n3)cc2)O[C@@H]2O[C@@]3(C)CC[C@H]4[C@H](C)CC[C@@H]1[C@@]24OO3 [Compound 38, 5-(4-((((3R,5aS,6R,8aS, 9R,10S,12R, 12aR)-3,6,9-trimethyldeca-hydro-12H-3,12-epoxy[1,2]dioxepino[4,3-i]isochromen-10-yl)oxy)methyl)phenyl)-2H-tetrazole]
400	206	C[C@H]1[C@H](OCc2ccc(B(O)O)cc2)O[C@@H]2O[C@@]3(C)CC[C@H]4[C@H](C)CC[C@@H]1[C@@]24OO3 [Compound 176, (4-((((3R,5aS,6R,8aS, 9R,10R,12R, 12aR)-3,6,9-trimethyldeca-hydro-12H-3,12-epoxy[1,2]dioxepino[4,3-i]isochromen-10-yl)oxy)methyl)phenyl)boronic acid]
660	44.5	C[C@H]1[C@@H](OCc2c(Cl)cc(C(=O)O)cc2Cl)O[C@@H]2O[C@@]3(C)CC[C@H]4[C@H](C)CC[C@@H]1[C@@]24OO3 [Compound 177, 3,5-dichloro-4-((((3R,5aS,6R,8aS, 9R,10S,12R, 12aR)-3,6,9-trimethyldeca-hydro-12H-3,12-epoxy[1,2]dioxepino[4,3-i]isochromen-10-yl)oxy)methyl) benzoic acid]
4380	1460	C[C@H]1[C@H](NCc2cnn(C)c2)O[C@@H]2O[C@@]3(C)CC[C@H]4[C@H](C)CC[C@@H]1[C@@]24OO3 [Compound 46, (3R,5aS,6R,8aS, 9R,10R,12R, 12aR)-3,6,9-trimethyl-N-((1-methyl-1H-pyrazol-4-yl)methyl)decahydro-12H-3,12-epoxy[1,2] dioxepino[4,3-i] isochromen-10-amine]
100	20.4	C[C@H]1[C@@H](OCC2CCC(F)(F)CC2)O[C@@H]2O[C@@]3(C)CC[C@H]4[C@H](C)CC[C@@H]1[C@@]24OO3 [Compound 106, (3R,5aS,6R,8aS, 9R,10S,12R, 12aR)-10-((4,4-difluorocyclo-hexyl)methoxy)-3,6,9-trimethyldeca-hydro-12H-3,12-epoxy[1,2] dioxepino[4,3-i] isochromene]
6500	45.3	C[C@H]1[C@H](OCc2cc(C(=O)O)ccc2Cl)O[C@@H]2O[C@@]3(C)CC[C@H]4[C@H](C)CC[C@@H]1[C@@]24OO3 [Compound 168, 4-chloro-3-((((3R,5aS,6R,8aS, 9R,10R,12R, 12aR)-3,6,9-trimethyldeca-hydro-12H-3,12-epoxy[1,2]dioxepino[4,3-i]isochromen-10-yl)oxy)methyl) benzoic acid]

Continued, compound first:

Compound	IC50 [1] [nM]	EC50 [2] [nM]
C[C@H]1[C@@H](OCc2cc(Cl)cc(C(=O)O)c2)O[C@@H]2O[C@@]3(C)CC[C@H]4[C@H](C)CC[C@@H]1[C@@]24OO3 [Compound 178, 3-chloro-5-((((3R,5aS,6R,8aS, 9R,10S,12R, 12aR)-3,6,9-trimethyldeca-hydro-12H-3,12-epoxy[1,2]dioxepino[4,3-i]isochromen-10-yl)oxy)methyl) benzoic acid]	4000	243
Cc1cc(CN[C@@H]2O[C@@H]3O[C@@]4(C)CC[C@H]5[C@H](C)CC[C@@H]([C@H]2C)[C@@]35OO4)cc(C)n1 [Compound 37, (3R,5aS,6R,8aS, 9R,10R,12R, 12aR)-N-((2,6-dimethylpyridin-4-yl)methyl)-3,6,9-trimethyldeca-hydro-12H-3,12-epoxy[1,2] dioxepino[4,3-i] isochromen-10-amine]	590	555
C[C@H]1[C@H](N2CC[C@@H](C(=O)O)C2)O[C@@H]2O[C@@]3(C)CC[C@H]4[C@H](C)CC[C@@H]1[C@@]24OO3 [Compound 69, (R)-1-((3R,5aS,6R,8aS, 9R,10R,12R, 12aR)-3,6,9-trimethyldeca-hydro-12H-3,12-epoxy[1,2]dioxepino[4,3-i]isochromen-10-yl)pyrrolidine-3-carboxylic acid]	> 20000	> 20000
C[C@H]1[C@@H](Oc2ccc(CC(=O)O)cc2F)O[C@@H]2O[C@@]3(C)CC[C@H]4[C@H](C)CC[C@@H]1[C@@]24OO3 [Compound 9, 2-(3-fluoro-4-(((3R,5aS,6R, 8aS,9R,10S,12R, 12aR)-3,6,9-trimethyldeca-hydro-12H-3,12-epoxy[1,2]dioxepino[4,3-i]isochromen-10-yl)oxy)phenyl) acetic acid]	> 20000	59.3
C[C@H]1[C@@H](OCC(=O)N[C@H]2CC[C@@H](C(=O)O)C2)O[C@@H]2O[C@@]3(C)CC[C@H]4[C@H](C)CC[C@@H]1[C@@]24OO3 [Compound 152, (1R,3S)-3-(2-(((3R,5aS,6R, 8aS,9R,10S,12R, 12aR)-3,6,9-trimethyldeca-hydro-12H-3,12-epoxy[1,2]dioxepino[4,3-i]isochromen-10-yl)oxy)acetamido) cyclopentane-1-carboxylic acid]	> 20000	8480
C[C@H]1[C@@H](Oc2ccc(CC(=O)O)c(F)c2F)O[C@@H]2O[C@@]3(C)CC[C@H]4[C@H](C)CC[C@@H]1[C@@]24OO3 [Compound 23, 2-(2,3-difluoro-4-(((3R,5aS,6R,8aS, 9R,10S,12R, 12aR)-3,6,9-trimethyldeca-hydro-12H-3,12-epoxy[1,2]dioxepino[4,3-i]isochromen-10-yl)oxy)phenyl) acetic acid]	15000	192
C[C@H]1[C@H](NCCCS(C)(=O)=O)O[C@@H]2O[C@@]3(C)CC[C@H]4[C@H](C)CC[C@@H]1[C@@]24OO3 [Compound 100, (3R,5aS,6R,8aS, 9R,10R,12R, 12aR)-3,6,9-trimethyl-N-(3-(methylsulfonyl)propyl)deca-hydro-12H-3,12-epoxy[1,2] dioxepino[4,3-i] isochromen-10-amine]	535	498
C[C@H]1[C@H](N2CCC(C(=O)NC3CS(=O)(=O)C3)CC2)O[C@@H]2O[C@@]3(C)CC[C@H]4[C@H](C)CC[C@@H]1[C@@]24OO3 [Compound 65, N-(1,1-dioxidothietan-3-yl)-1-((3R,5aS,6R,8aS, 9R,10R,12R, 12aR)-3,6,9-trimethyldeca-hydro-12H-3,12-epoxy[1,2]dioxepino[4,3-i]isochromen-10-yl)piperidine-4-carboxamide]	> 20000	> 20000
C[C@H]1[C@@H](OCc2cccc(CC(=O)O)c2)O[C@@H]2O[C@@]3(C)CC[C@H]4[C@H](C)CC[C@@H]1[C@@]24OO3 [Compound 34, 2-(3-((((3R,5aS,6R, 8aS,9R,10S,12R, 12aR)-3,6,9-trimethyldeca-hydro-12H-3,12-epoxy[1,2]dioxepino[4,3-i]isochromen-10-yl)oxy)methyl)phenyl)acetic acid]	> 20000	480
C[C@H]1[C@@H](OC[C@H]2CC[C@H](C(=O)O)CC2)O[C@@H]2O[C@@]3(C)CC[C@H]4[C@H](C)CC[C@@H]1[C@@]24OO3 [Compound 43, (1S,4r)-4-((((3R,5aS,6R, 8aS,9R,10S,12R, 12aR)-3,6,9-trimethyldeca-hydro-12H-3,12-epoxy[1,2]dioxepino[4,3-i]isochromen-10-yl)oxy)methyl) cyclohexane-1-carboxylic acid]	> 20000	892
C[C@H]1[C@H](N2CC(S(C)(=O)=O)C2)O[C@@H]2O[C@@]3(C)CC[C@H]4[C@H](C)CC[C@@H]1[C@@]24OO3 [Compound 4, 3-(methylsulfonyl)-1-((3R,5aS,6R, 8aS,9R,10R, 12R,12aR)-3,6,9-trimethyldeca-hydro-1H-3,12-epoxy[1,2]dioxepino[4,3-i]isochromen-10-yl)azetidine]	101	42.8
C[C@H]1[C@@H](Oc2ccc(C(=O)NCC(=O)O)cc2)O[C@@H]2O[C@@]3(C)CC[C@H]4[C@H](C)CC[C@@H]1[C@@]24OO3 [Compound 142, (4-(((3R,5aS,6R,8aS, 9R,10S,12R, 12aR)-3,6,9-trimethyldeca-hydro-12H-3,12-epoxy[1,2]dioxepino[4,3-i]isochromen-10-yl)oxy)benzoyl) glycine]	> 20000	1820
